The structures appear in SMILES notation.

Chain of PERK recombinant enzyme (cytoplasmic domain corresponding to residues 540-1115) (Q9NZJ5 540-1115): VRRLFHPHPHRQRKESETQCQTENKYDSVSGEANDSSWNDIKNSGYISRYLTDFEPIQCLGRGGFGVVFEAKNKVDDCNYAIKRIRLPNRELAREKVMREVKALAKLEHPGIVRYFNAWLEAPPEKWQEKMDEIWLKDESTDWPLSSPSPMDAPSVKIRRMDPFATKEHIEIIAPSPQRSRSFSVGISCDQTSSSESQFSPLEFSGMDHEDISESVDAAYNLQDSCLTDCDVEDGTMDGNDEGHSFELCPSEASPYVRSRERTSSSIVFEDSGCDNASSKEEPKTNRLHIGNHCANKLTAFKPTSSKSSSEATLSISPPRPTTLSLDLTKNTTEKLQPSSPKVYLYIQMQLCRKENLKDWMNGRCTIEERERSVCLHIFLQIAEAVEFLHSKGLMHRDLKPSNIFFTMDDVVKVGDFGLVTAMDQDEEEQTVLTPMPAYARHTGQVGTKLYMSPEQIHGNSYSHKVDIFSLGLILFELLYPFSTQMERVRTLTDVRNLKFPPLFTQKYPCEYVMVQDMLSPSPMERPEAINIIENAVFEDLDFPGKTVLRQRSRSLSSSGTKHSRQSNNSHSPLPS

This assay concerns the target PERK recombinant enzyme (cytoplasmic domain corresponding to residues 540-1115) (Homo sapiens (Human), UniProt Q9NZJ5). Description: PERK enzyme assay, Method 2: quantification of phosphorylated product with ATP/P33 gammaATP (Dowex resin). Particulars: Method 2 (P33 gammaATP radiometric); 52 microM ATP, 8 nM PERK, 300 microM eIF2alpha peptide substrate, 60 minutes at room temperature. In kind it is biochemical. The procedure:
The biochemical activity of compounds was determined by incubation with PERK recombinant enzyme (cytoplasmic domain corresponding to residues 540-1115) and elF2alpha peptide substrate (Aminoacid sequence: LLSELSRRRIRSINK—SEQ ID Nr: 1; purchased from American Peptide Company, product #341923). This was followed by:
Method 2: Quantification of the Phosphorylated Product Formed from the Kinase Reaction in Presence of ATP (Aldrich, Cat #A2620-9).
Serially diluted compounds were incubated for 60 minutes at room temperature in the presence of ATP/P^33 gammaATP mix, substrate and enzyme in a volume of 15 microL of kinase buffer in 384-well plates (Thermo Scientific, cat #4312).
The reaction volume contains, in final concentration, 52 microM ATP, 8 nM PERK and 300 microM substrate in 50 mM Hepes pH 7.5, 3 mM MgCl2, 1 mM DTT, 3 microM Na3VO4, 0.2 mg/ml BSA. The final concentration of DMSO was 1%.
At the end of the incubation, an amount of 60 microL of Dowex resin (Sigma, customized resin 1×8 200-400 mesh cat #13858-U) in 150 mM sodium formate buffer pH=3.0 was added to stop the reaction and capture unreacted ATP/P^33 gammaATP, separating it from the phosphorylated substrate in solution. After 60 minutes of rest, a volume of 22 microL of supernatant was transferred into 384-Optiplates (Perkin-Elmer, cat #6007290). After the addition of 50 microL of Microscint 40 (Perkin-Elmer, cat #6013641), the radioactivity was counted in the TopCount (Perkin Elmer).
The data per each molecule are analyzed by an internally customized version of the SW package “Assay Explorer”, or by GraphPad Prizm software alternatively, which provides sigmoidal fittings of the curves for IC50 determination using a 4 parameter logistic equation: y=bottom+(top−bottom)/(1+10^((log IC50−x)*slope))
where x is the logarithm of the inhibitor concentration, y is the response; y starts at bottom and goes to top with a sigmoid shape.
Consider `COc1cc(F)c(S(=O)(=O)Nc2cccc(-c3nn(C4CCN(C(=O)OC(C)(C)C)CC4)c4ncnc(N)c34)c2F)cc1Cl` [cmpd 10, 4-{4-Amino-3-[3-(5-chloro-2-fluoro-4-methoxy-benzenesulfonylamino)-2-fluoro-phenyl]-pyrazolo[3,4-d]pyrimidin-1-yl}-piperidine-1-carboxylic acid tert-butyl ester], for which the pIC50 result is given as “C (pIC50 < 6.8)”.

In the case of `COc1ccc(S(=O)(=O)Nc2cccc(-c3nn(C4CCN(C(=O)OC(C)(C)C)CC4)c4ncnc(N)c34)c2F)cc1Cl` [cmpd 11, 4-{4-Amino-3-[3-(3-chloro-4-methoxy-benzenesulfonylamino)-2-fluoro-phenyl]-pyrazolo[3,4-d]pyrimidin-1-yl}-piperidine-1-carboxylic acid tert-butyl ester], the pIC50 result was “C (pIC50 < 6.8)”.

As for `COc1cc(F)c(S(=O)(=O)Nc2cccc(-c3nn(C4CCN(C)CC4)c4ncnc(N)c34)c2F)cc1Cl` [cmpd 61, N-{3-[4-Amino-1-(1-methyl-piperidin-4-yl)-1H-pyrazolo[3,4-d]pyrimidin-3-yl]-2-fluoro-phenyl}-5-chloro-2-fluoro-4-methoxy-benzenesulfonamide], the 50% inhibitory concentration (IC50) is 15.8 to 50.1 nM.

Take `COc1cc(F)c(S(=O)(=O)Nc2cccc(-c3nn(C4CCNCC4)c4ncnc(N)c34)c2F)cc1Cl` [cmpd 62, N-[3-(4-Amino-1-piperidin-4-yl-1H-pyrazolo[3,4-d]pyrimidin-3-yl)-2-fluoro-phenyl]-5-chloro-2-fluoro-4-methoxy-benzenesulfonamide]: the concentration for half-maximal inhibition (IC50) was 15.8 to 50.1 nM.

Consider `COc1ccc(S(=O)(=O)Nc2cccc(-c3nn(C4CCNCC4)c4ncnc(N)c34)c2F)cc1Cl` [cmpd 63, N-[3-(4-Amino-1-piperidin-4-yl-1H-pyrazolo[3,4-d]pyrimidin-3-yl)-2-fluoro-phenyl]-3-chloro-4-methoxy-benzenesulfonamide], for which the IC50 was 15.8 to 50.1 nM.

For the molecule `COc1cc(F)c(S(=O)(=O)Nc2cccc(-c3nn(C4CCN(C(C)C)CC4)c4ncnc(N)c34)c2F)cc1Cl` [cmpd 65, N-{3-[4-Amino-1-(1-isopropyl-piperidin-4-yl)-1H-pyrazolo[3,4-d]pyrimidin-3-yl]-2-fluoro-phenyl}-5-chloro-2-fluoro-4-methoxy-benzenesulfonamide], the IC50 was 50.1 to 158 nM.

`COc1ccc(S(=O)(=O)Nc2cccc(-c3nn(C4CCN(C)CC4)c4ncnc(N)c34)c2F)cc1Cl` [cmpd 66, N-{3-[4-Amino-1-(1-methyl-piperidin-4-yl)-1H-pyrazolo[3,4-d]pyrimidin-3-yl]-2-fluoro-phenyl}-3-chloro-4-methoxy-benzenesulfonamide]: the 50% inhibitory concentration (IC50) was 50.1 to 158 nM.

Regarding `CN1CCC(n2cc(-c3cccc(NS(=O)(=O)c4ccc(Cl)c(Cl)c4)c3F)c3c(N)ncnc32)CC1` [cmpd 71, N-{3-[4-Amino-7-(1-methyl-piperidin-4-yl)-7H-pyrrolo[2,3-d]pyrimidin-5-yl]-2-fluoro-phenyl}-3,4-dichloro-benzenesulfonamide], the pIC50 entry is “AA (7.8 ≤ pIC50)”.

`CN1CCC(n2cc(-c3cccc(NS(=O)(=O)c4ccc(Br)cc4F)c3F)c3c(N)ncnc32)CC1` [cmpd 72, N-{3-[4-Amino-7-(1-methyl-piperidin-4-yl)-7H-pyrrolo[2,3-d]pyrimidin-5-yl]-2-fluoro-phenyl}-4-bromo-2-fluoro-benzenesulfonamide]: the half-inhibitory concentration (IC50) was 15.8 to 50.1 nM.

On to `COc1cc(F)c(S(=O)(=O)Nc2cccc(-c3cn(C4CCN(C)CC4)c4ncnc(N)c34)c2F)cc1C` [cmpd 73, N-{3-[4-Amino-7-(1-methyl-piperidin-4-yl)-7H-pyrrolo[2,3-d]pyrimidin-5-yl]-2-fluoro-phenyl}-2-fluoro-4-methoxy-5-methyl-benzenesulfonamide], for which the pIC50 entry was “AA (7.8 ≤ pIC50)”.

On to `CN1CCC(n2cc(-c3cccc(NS(=O)(=O)c4ccc(Br)s4)c3F)c3c(N)ncnc32)CC1` [cmpd 77, 5-Bromo-thiophene-2-sulfonic acid {3-[4-amino-7-(1-methyl-piperidin-4-yl)-7H-pyrrolo[2,3-d]pyrimidin-5-yl]-2-fluoro-phenyl}-amide], for which the IC50 was 15.8 to 50.1 nM.

With `COc1cc(S(=O)(=O)Nc2cccc(-c3cn(C)c4ncnc(N)c34)c2F)c(F)cc1Cl` [cmpd 79, N-[3-(4-Amino-7-methyl-7H-pyrrolo[2,3-d]pyrimidin-5-yl)-2-fluoro-phenyl]-4-chloro-2-fluoro-5-methoxy-benzenesulfonamide], the IC50 is 15.8 to 50.1 nM.

With `Cn1cc(-c2cccc(NS(=O)(=O)C3CCCCC3)c2F)c2c(N)ncnc21` [cmpd 89, Cyclohexanesulfonic acid [3-(4-amino-7-methyl-7H-pyrrolo[2,3-d]pyrimidin-5-yl)-2-fluoro-phenyl]-amide], the pIC50 result is on record as “C (pIC50 < 6.8)”.

Turning to `COc1cc(F)c(S(=O)(=O)Nc2cccc(-c3cn(C)c4ncnc(N)c34)c2C#N)cc1Cl` [cmpd 90, N-[3-(4-Amino-7-methyl-7H-pyrrolo[2,3-d]pyrimidin-5-yl)-2-cyano-phenyl]-5-chloro-2-fluoro-4-methoxy-benzenesulfonamide], the IC50 is 50.1 to 158 nM.

Broadly, the IC50 is the concentration that inhibits the measured activity by half.

These data come from patent publication US10918642B2, “N-(substituted-phenyl)-sulfonamide derivatives as kinase inhibitors” (Nerviano Medical Sciences S.R.L., priority 2016, dated 2021).
